Test results reported in patent publication US20210254056A1, “IDENTIFICATION AND TARGETED MODULATION OF GENE SIGNALING NETWORKS” (CAMP4 THERAPEUTICS CORPORATION, priority 2017, published 2021).
Where a name gives a salt, the structure may show the parent alone. Read-outs that look alike come from different tables or passages of the source.

Tests used:
[1] = test system: primary human hepatocytes; assay: RNA-seq of primary human hepatocytes treated with 39 small molecules (pilot and validation); conditions: for significant modulation of gene expression: RNA-seq, p-value≤0.05, primary human hepatocytes, the modulated genes are listed in the block; for Number (#) of genes having significantly changed expression: pilot RNA-seq study of Example 2, significance: FPKM≥0.5, log 2(fold change)≥1, q-value ≤0.05
hepatocytes [2] = assay: RNA-seq of hepatocytes stimulated with the compounds of Table 68
hepatocytes [3] = assay: RNA-seq of hepatocytes treated with Phase III failure compounds; conditions: for significant modulation of expression of any of the genes analyzed: p≤0.05
Description: RNA-seq was performed to determine the effects of the compounds on hepatocytes.
Significance was determined by the criteria of FPKM≥0.5, a log 2(fold-change)≥1, and a […].

[4] = hepatocytes stimulated with the compound, RNA-seq, significance: FPKM≥1, q-value≤0.05, log 2 fold change≥1.5
[5] = RNA-seq, Phase III failure compounds, hepatocytes, significance: FPKM≥0.5, log 2(fold-change)≥1, q-value≥0.05 (so in the source)

## CCOc1ccn(-c2ccc(F)cc2)c(=O)c1C(=O)Nc1ccc(Oc2ccnc(N)c2Cl)c(F)c1 [MT-375, Bms777607]
[1]
  significant modulation of gene expression: significantly (p-value≤0.05) modulate
  Number (#) of genes having significantly changed expression: 19

## CCCCCCCCCCCCCCCCOC[C@H](COP(=O)([O-])OCC[N+](C)(C)C)OC(C)=O [PAF-C-16]
Hepatocytes [2]
  # of genes having significantly altered expression: 7

## COc1cccc(-n2c(=O)[nH]c3cc(Cl)n(-c4ccc(-c5cccc(OC)c5O)cc4)c3c2=O)c1 [GSK621]
Hepatocytes [2]
  # of genes having significantly altered expression: 5

## NCCc1c[nH]cn1 [Histamine]
Hepatocytes [2]; [4]
  # of genes having significantly altered expression: 20

## Cc1c(C(=O)NN2CCCCC2)nn(-c2ccc(Cl)cc2Cl)c1-c1ccc(Cl)cc1 [Rimonabant]
Hepatocytes [2]; [4]
  # of genes having significantly altered expression: 1392

## CC1(C)CCC(c2ccc(Cl)cc2)=C(CN2CCN(c3ccc(C(=O)NS(=O)(=O)c4ccc(N[C@H](CCN5CCOCC5)CSc5ccccc5)c(S(=O)(=O)C(F)(F)F)c4)cc3)CC2)C1 [ABT-263]
Hepatocytes [2]; [4]
  # of genes having significantly altered expression: 1

## CC(C)c1nc(CN(C)C(=O)N[C@H](C(=O)N[C@@H](Cc2ccccc2)C[C@H](O)[C@H](Cc2ccccc2)NC(=O)OCc2cncs2)C(C)C)cs1 [MT-372, Ritonavir]
[1]
  significant modulation of gene expression: significantly (p-value≤0.05) modulate
  Number (#) of genes having significantly changed expression: 183

## CCCC(CCC)C(=O)O [MT-625, Valproate]
[1]
  Number (#) of genes having significantly changed expression: 4

## COc1ccc(C[C@H](NC(C)=O)C(=O)N[C@H]2[C@@H](O)[C@H](n3cnc4c(N(C)C)ncnc43)O[C@@H]2CO)cc1 [MT-993, N-Acetylpurinomycin]
[1]
  significant modulation of gene expression: significantly (p-value≤0.05) modulate

## Cc1ccc(NC(=O)c2ccc(CN3CCN(C)CC3)cc2)cc1Nc1nccc(-c2cccnc2)n1 [MT-182, Imatinib]
[1]
  significant modulation of gene expression: significantly (p-value≤0.05) modulate
  Number (#) of genes having significantly changed expression: 31

## Pifithrin-μ
Hepatocytes [2]
  # of genes having significantly altered expression: 5377

## NCC(=O)Nc1ccc(-n2nc(C(F)(F)F)cc2-c2ccc3c(ccc4ccccc43)c2)cc1 [OSU-03012]
Hepatocytes [2]; [4]
  # of genes having significantly altered expression: 1786

## CC1(C)CC=C(c2cnc3ccccc3c2)c2cc(C(=O)Nc3ccc(C(=O)O)cc3)ccc21 [BMS 195614]
Hepatocytes [2]
  # of genes having significantly altered expression: 46

## O=c1cc(N2CCOCC2)oc2c(-c3ccccc3)cccc12 [LY294002]
Hepatocytes [2]; [4]
  # of genes having significantly altered expression: 981

## COc1cc(Nc2c(C#N)cnc3cc(OCCCN4CCN(C)CC4)c(OC)cc23)c(Cl)cc1Cl [Bosutinib]
Hepatocytes [2]; [4]
  # of genes having significantly altered expression: 2184

## Cc1ccc(NC(=O)c2ccc(CN3CCN(C)CC3)cc2)cc1Nc1nc(-c2cccnc2)cs1 [Mastinib]
Hepatocytes [2]; hepatocytes stimulated with the compound, RNA-seq, […]
  # of genes having significantly altered expression: 151

## CC1(C)CC=C(c2ccccc2)c2cc(/C=C/c3ccc(C(=O)O)cc3)ccc21 [MT-232, Bms189453]
[1]
  significant modulation of gene expression: significantly (p-value≤0.05) modulate
  Number (#) of genes having significantly changed expression: 1

## C[C@@H](Oc1cc(-c2cnn(C3CCNCC3)c2)cnc1N)c1c(Cl)ccc(F)c1Cl [Crizotinib]
Hepatocytes [2]; [4]
  # of genes having significantly altered expression: 3265

## Oc1c(F)cc(-c2cnccc2-c2ccc(N3CCOCC3)cc2)cc1F [LJI308]
Hepatocytes [2]
  # of genes having significantly altered expression: 1

## COCCOCOc1cc2ccc(-c3ccc(C(=O)O)cc3)cc2cc1C12CC3CC(CC(C3)C1)C2 [CD 2665]
Hepatocytes [2]
  # of genes having significantly altered expression: 1102

## CNCc1ccc(C)c(NC(=O)c2ccc(Nc3nc(-c4ccccc4)c4ccccc4n3)cc2)c1 [MT-636, Bms833923]
[1]
  significant modulation of gene expression: significantly (p-value≤0.05) modulate
  Number (#) of genes having significantly changed expression: 66

## CC1=C(/C=C/C(C)=C/C=C/C(C)=C/C(=O)O)C(C)(C)CCC1 [MT-603, Tretinoin (ATRA)]
[1]
  significant modulation of gene expression: significantly (p-value≤0.05) modulate
  Number (#) of genes having significantly changed expression: 30

## CC(C)Cc1ccc(C(C)C(=O)O)cc1 (stereo not drawn) [MT-662, Ibuprofen]
[1]
  significant modulation of gene expression: significantly (p-value≤0.05) modulate
  Number (#) of genes having significantly changed expression: 18

## CO[C@H]1C[C@@H]2CC[C@@H](C)[C@@](O)(O2)C(=O)C(=O)N2CCCC[C@H]2C(=O)O[C@H]([C@H](C)C[C@@H]2CC[C@@H](O)[C@H](OC)C2)CC(=O)[C@H](C)/C=C(\C)[C@@H](O)[C@@H](OC)C(=O)[C@H](C)C[C@H](C)/C=C/C=C/C=C/1C [MT-882, Rapamycin]
[1]
  Number (#) of genes having significantly changed expression: 67

## O=C(O)CC[C@H]1CC[C@@](c2cc(F)ccc2F)(S(=O)(=O)c2ccc(Cl)cc2)CC1 [MT-308, MK-0752]
[1]
  significant modulation of gene expression: significantly (p-value≤0.05) modulate

## CC(=O)Nc1ccc(O)cc1 [MT-922, Acetaminophen (paracetamol)]
[1]
  Number (#) of genes having significantly changed expression: 3

## NNC(=O)c1ccncc1 [MT-312, Isoniazid]
[1]
  significant modulation of gene expression: significantly (p-value≤0.05) modulate
  Number (#) of genes having significantly changed expression: 14

## c1ccc(-c2[nH]ncc2-c2ccnc3ccccc23)nc1 [MT-740, LY 364947]
[1]
  significant modulation of gene expression: significantly (p-value≤0.05) modulate

## CN(CCOc1ccc(CC2SC(=O)NC2=O)cc1)c1ccccn1 (stereo not drawn) [MT-361, Rosiglitazone maleate]
[1]
  Number (#) of genes having significantly changed expression: 78

## Oc1nc(-c2ccc(C(F)(F)F)cc2)nc2c1CSCC2 [MT-713, Xav939]
[1]
  significant modulation of gene expression: significantly (p-value≤0.05) modulate
  Number (#) of genes having significantly changed expression: 8

## Cc1ccc2c(c1)c1c(n2CCc2ccc(C)nc2)CCN(C)C1 [Latrepirdine (dihydrochloride) (57), Latrepirdine]
Hepatocytes [3]; [5]
  Number (#) of genes having significantly changed expression: 12
Hepatocytes [3]; RNA-seq, hepatocytes
  significant modulation of expression of any of the genes analyzed: not observed to significantly modulate expression
  effect on disease gene expression: no effect on any disease gene

## CCCCC(C)(C)[C@H](O)/C=C/[C@H]1[C@H](O)CC(=O)[C@@H]1C/C=C\CCCC(=O)O [MT-937, DmPGE2]
[1]
  significant modulation of gene expression: significantly (p-value≤0.05) modulate

## CN[C@@]1(C)[C@@H]2CC[C@@H](C2)C1(C)C [TC-5214]
Hepatocytes [3]
  Number (#) of genes having significantly changed expression: 30

## CCCc1cc(=O)[nH]c(=S)[nH]1 [MT-127, Propylthiouracil]
[1]
  significant modulation of gene expression: significantly (p-value≤0.05) modulate
  Number (#) of genes having significantly changed expression: 8

## CN1CCC(CNc2ccc3ncc(-c4cccc(OC(F)(F)F)c4)n3n2)CC1 [MT-254, SGI-1776]
[1]
  significant modulation of gene expression: significantly (p-value≤0.05) modulate
  Number (#) of genes having significantly changed expression: 64

## COCCOc1ccc(N2CCN(CCn3ncc4c3nc(N)n3nc(-c5ccco5)nc43)CC2)cc1 [Preladenant]
Hepatocytes [3]; [5]
  Number (#) of genes having significantly changed expression: 317
Hepatocytes [3]; RNA-seq, q≤0.05, hepatocytes, genes in the value or listed in the block
  significant modulation of expression of disease genes: significantly (q≤0.05) modulate expression
Hepatocytes [3]; gene B2M, hepatocytes
  B2M expression, RNA-seq result: 0.09
Hepatocytes [3]; gene B9D2, hepatocytes
  B9D2 expression, RNA-seq result: −0.56
Hepatocytes [3]; gene BAAT, hepatocytes
  BAAT expression, RNA-seq result: −0.58
Hepatocytes [3]; gene BBOX1, hepatocytes
  BBOX1 expression, RNA-seq result: −0.56
Hepatocytes [3]; gene BBS10, hepatocytes
  BBS10 expression, RNA-seq result: −0.21
Hepatocytes [3]; gene BCHE, hepatocytes
  BCHE expression, RNA-seq result: −0.63
Hepatocytes [3]; gene BCKDHB, hepatocytes
  BCKDHB expression, RNA-seq result: −0.78
Hepatocytes [3]; gene BCKDK, hepatocytes
  BCKDK expression, RNA-seq result: −0.48
Hepatocytes [3]; gene BCO1, hepatocytes
  BCO1 expression, RNA-seq result: −1.07
Hepatocytes [3]; gene BCR, hepatocytes
  BCR expression, RNA-seq result: −0.62
Hepatocytes [3]; gene BLNK, hepatocytes
  BLNK expression, RNA-seq result: 0.53
Hepatocytes [3]; gene BLOC1S3, hepatocytes
  BLOC1S3 expression, RNA-seq result: 0.3
Hepatocytes [3]; gene BMPR1A, hepatocytes
  BMPR1A expression, RNA-seq result: 0.11
Hepatocytes [3]; gene BRAF, hepatocytes
  BRAF expression, RNA-seq result: 0.46
Hepatocytes [3]; gene BSCL2, hepatocytes
  BSCL2 expression, RNA-seq result: −0.26
Hepatocytes [3]; gene BTD, hepatocytes
  BTD expression, RNA-seq result: −0.16
Hepatocytes [3]; gene C4A, hepatocytes
  C4A expression, RNA-seq result: 0.16
Hepatocytes [3]; gene C9, hepatocytes
  C9 expression, RNA-seq result: −0.38
Hepatocytes [3]; gene C10orf10, hepatocytes
  C10orf10 expression, RNA-seq result: 0.14
Hepatocytes [3]; gene C10orf11, hepatocytes
  C10orf11 expression, RNA-seq result: −0.32
Hepatocytes [3]; gene C15orf41, hepatocytes
  C15orf41 expression, RNA-seq result: −0.17
Hepatocytes [3]; gene CA2, hepatocytes
  CA2 expression, RNA-seq result: 0.76
Hepatocytes [3]; gene CA5A, hepatocytes
  CA5A expression, RNA-seq result: −0.56
Hepatocytes [3]; gene CA12, hepatocytes
  CA12 expression, RNA-seq result: 0.43
Hepatocytes [3]; gene CAV1, hepatocytes
  CAV1 expression, RNA-seq result: −0.02
Hepatocytes [3]; gene CCND1, hepatocytes
  CCND1 expression, RNA-seq result: −0.89
Hepatocytes [3]; gene CD46, hepatocytes
  CD46 expression, RNA-seq result: 0.34
Hepatocytes [3]; gene CD81, hepatocytes
  CD81 expression, RNA-seq result: −0.26
Hepatocytes [3]; gene CD320, hepatocytes
  CD320 expression, RNA-seq result: −0.95
Hepatocytes [3]; gene CDAN1, hepatocytes
  CDAN1 expression, RNA-seq result: −0.32
Hepatocytes [3]; gene CDH1, hepatocytes
  CDH1 expression, RNA-seq result: −0.29
Hepatocytes [3]; gene CEP19, hepatocytes
  CEP19 expression, RNA-seq result: −0.54
Hepatocytes [3]; gene CEP83, hepatocytes
  CEP83 expression, RNA-seq result: 0.05
Hepatocytes [3]; gene CEP164, hepatocytes
  CEP164 expression, RNA-seq result: −0.48
Hepatocytes [3]; gene CEP290, hepatocytes
  CEP290 expression, RNA-seq result: 0.41
Hepatocytes [3]; gene CFB, hepatocytes
  CFB expression, RNA-seq result: 0.26
Hepatocytes [3]; gene CFHR2, hepatocytes
  CFHR2 expression, RNA-seq result: −0.22
Hepatocytes [3]; gene CHRM3, hepatocytes
  CHRM3 expression, RNA-seq result: 0.06
Hepatocytes [3]; gene CIDEC, hepatocytes
  CIDEC expression, RNA-seq result: −1.38
Hepatocytes [3]; gene CLDN1, hepatocytes
  CLDN1 expression, RNA-seq result: −0.26
Hepatocytes [3]; gene COG1, hepatocytes
  COG1 expression, RNA-seq result: −0.08

## CC1(C)CC[C@]2(C(=O)O)CC[C@]3(C)[C@H](C(=O)C=C4[C@@]5(C)C=C(C#N)C(=O)C(C)(C)[C@@H]5CC[C@]43C)[C@@H]2C1 [Bardoxolone]
Hepatocytes [3]; RNA-seq, hepatocytes
  significant modulation of expression of any of the genes analyzed: not observed to significantly modulate expression

## c1cc(-c2cnn3cc(-c4ccc(OCCN5CCCCC5)cc4)cnc23)ccn1 [MT-334, Dorsomorphin]
[1]
  Number (#) of genes having significantly changed expression: 15
